Values of other authors, collected in patent publication US20240099995A1, “METHOD OF PREPARING A TOPICAL PHARMACEUTICAL COMPOSITION” (PHEBRA PTY LTD, priority 2021, published 2024).
Where two headings read alike, the source gives them in different places.

What was measured:
[1] = not given; remark: listed apart in the source

concentration loss (4° C. and above, after 2 days) [%]	concentration loss (22° C., within 90 minutes) [%]	time stable (stored in a freezer, acidic and basic conditions)	Compound	duration of topical anesthesia ([1]; with adrenaline) [min]	duration of topical anesthesia ([1]; without adrenalin) [min]
100	100	at least 28 days	CNCC(O)c1ccc(O)c(O)c1 (centres unmarked) [adrenaline]	–	–
–	–	–	CCN(CC)CC(=O)Nc1c(C)cccc1C [lignocaine]	120 to 360	30 to 60
